Assays:
[1] = molecular target: PRMT5/MEP50 complex (Homo sapiens (Human), UniProt O14744); test: Biochemical assay: PRMT5/MEP50 methylation of histone H4 based AcH4-23, SPA readout; details: PRMT5/MEP50 2.5 nM, 300 nM AcH4-23, 1 μM 3H-SAM
Method in brief: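 PRMT5/MEP50 (2.5 nM final) preincubated with compound 20 min at 37°C alongside 300 nM AcH4-23 peptide. Reaction started with 1 µM [3H-methyl]-SAM, run 30 min at 37°C and quenched with guanidine HCl. Streptavidin SPA beads, scintillation counting; IC50 from four-parameter Hill fit.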

[2] = system: fetal hemoglobin expressing erythroid cells (% F cells); test: % F cells by flow cytometry in human erythroid cells; type: cell-based; details: erythroid progenitors, Day 7 of treatment, N=1
Description: Human erythroid progenitor cells were generated from purified CD34+ cells from mobilized peripheral blood purchased from AllCells. CD34+ cells were cultured in StemSpan SFEM II (StemCell Technologies, Catalog #09605) supplemented with 100 ng/ml FLT3 ligand (R&D systems, Catalog #308-FK), 100 ng/ml SCF (R&D systems, Catalog #255-SC), 20 ng/ml IL-3 (R&D systems, Catalog #203-IL), 20 ng/ml IL-6 (R&D systems, Catalog #206-IL) for 6 days, then reseeded into the same medium supplemented with 20 ng/ml SCF, 5 ng/ml IL-3, 1 U/ml EPO (R&D systems, Catalog #287-TC), 2 μM dexamethasone (Sigma-Aldrich, Catalog # D4902), 1 μM β-estradiol (Sigma-Aldrich, Catalog # E2758). Cells were treated with 0.1 and 1 μM compound from Day 8 of differentiation. Media and compound were renewed every 3 days and cells were collected for RNA isolation after 9 days of treatment.
Assessment of % F Cells by Flow Cytometry
Human erythroid cells were collected on Day 7 of treatment with compound. Cells were fixed in 0.05% glutaraldehyde (Electron Microscopy Sciences, Catalog #16019), permeabilized with 0.1% Triton-X and stained with FITC-conjugated antibody directed to fetal hemoglobin (ThermoFisher, Catalog # MHFH01). Analysis of fetal hemoglobin expressing erythroid cells (% F cells) was performed on an Attune Nxt flow cytometer (ThermoFisher).

[3] = system: γ-globin expression in K562 cells; test: γ-globin induction by quantitative PCR in K562 cells; type: cell-based; details: 1 μM, 6 days of treatment, N=1
Description: Compounds were dissolved in DMSO to make 10 mM stock solutions, and further diluted to make 1 mM and 0.1 mM stocks.
K562 cells were purchased from ATCC and maintained in Iscove's DMEM (Corning Cellgro, Catalog #15-016-CVR) supplemented with 10% v/v FBS (GE Healthcare, Catalog #: SH30910.03) in a CO2 incubator (5% CO2) at 37° C. Cells were plated at a density of 5×10^5 cells/ml and treated with compound at final concentrations of 0.1 and 1 μM. Media and compound were renewed after 3 days in culture and cells were collected for RNA isolation after 6 days of treatment.
Assessment of γ-Globin Induction by Quantitative PCR
RNA was isolated using Quick-RNA Microprep kit (Zymo Research, Catalog # Z1050), cDNA was synthesized using qScript cDNA SuperMix (Quantabio, Catalog #95048). Quantitative PCR for y-globin was performed using PerfeCTa SYBR Green FastMix (Quantabio, Catalog #95071) on Bio-Rad CFX Connect Real-Time PCR Detection System. Gene expression analysis was performed using CFX Manager software.
Assessment of γ-Globin Induction by Quantitative PCR in K562 Cells
Compounds were dissolved in DMSO to make 10 mM stock solutions, and further diluted to make 1 mM and 0.1 mM stocks. K562 cells were purchased from ATCC and maintained in Iscove's DMEM (Corning Cellgro, Catalog #15-016-CVR) supplemented with 10% v/v FBS (GE Healthcare, Catalog #: SH30910.03) in a CO2 incubator (5% CO2) at 37° C. […]

Sequence of PRMT5/MEP50 complex (O14744 whole entry): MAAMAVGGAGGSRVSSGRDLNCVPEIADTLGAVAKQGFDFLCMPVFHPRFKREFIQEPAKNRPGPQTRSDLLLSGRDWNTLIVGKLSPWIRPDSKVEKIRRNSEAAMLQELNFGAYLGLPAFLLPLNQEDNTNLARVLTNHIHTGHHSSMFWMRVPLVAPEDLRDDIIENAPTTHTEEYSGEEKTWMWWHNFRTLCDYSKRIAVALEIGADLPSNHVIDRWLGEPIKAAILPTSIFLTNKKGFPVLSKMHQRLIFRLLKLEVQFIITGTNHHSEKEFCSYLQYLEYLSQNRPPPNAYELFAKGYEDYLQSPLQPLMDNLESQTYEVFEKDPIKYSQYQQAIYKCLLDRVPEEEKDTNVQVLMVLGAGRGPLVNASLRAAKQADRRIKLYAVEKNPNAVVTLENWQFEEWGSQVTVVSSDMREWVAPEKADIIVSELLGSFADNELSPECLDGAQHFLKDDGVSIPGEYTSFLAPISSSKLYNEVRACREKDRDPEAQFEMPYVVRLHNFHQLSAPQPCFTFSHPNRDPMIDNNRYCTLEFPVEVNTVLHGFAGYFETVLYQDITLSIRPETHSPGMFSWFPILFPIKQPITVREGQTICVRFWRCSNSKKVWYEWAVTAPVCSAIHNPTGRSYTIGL
Sequence of PRMT5/MEP50 complex (Q9BQA1 whole entry partner): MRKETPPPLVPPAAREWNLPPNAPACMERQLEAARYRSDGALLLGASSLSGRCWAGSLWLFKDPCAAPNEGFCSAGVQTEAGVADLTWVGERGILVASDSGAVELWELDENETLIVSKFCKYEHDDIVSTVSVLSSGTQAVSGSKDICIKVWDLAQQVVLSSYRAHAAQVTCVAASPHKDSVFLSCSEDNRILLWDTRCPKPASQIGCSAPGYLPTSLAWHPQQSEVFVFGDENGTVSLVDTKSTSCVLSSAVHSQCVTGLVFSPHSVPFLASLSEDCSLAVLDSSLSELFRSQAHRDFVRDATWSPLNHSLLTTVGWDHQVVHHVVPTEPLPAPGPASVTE

- IC50 [1]: 1 nM
Compound: Nc1ncnc2c1ccn2[C@@H]1O[C@H]([C@@H]2OCc3ccc(Cl)cc32)[C@@H](O)[C@H]1O [Example 5, (2R,3R,4S,5S)-2-(4-amino-7H-pyrrolo[2,3-d]pyrimidin-7-yl)-5-((R)-6-chloro-1,3-dihydroisobenzofuran-1-yl)tetrahydrofuran-3,4-diol]
- increase in % F cells compared to DMSO treated control ([2]; 0.1 μM): 1.3 fold
- increase in % F cells compared to DMSO treated control ([2]; 1 μM): 3 fold
- increase in expression of γ-globin [3]: 8 fold

From patent US10711007B2, “Selective inhibitors of protein arginine methyltransferase 5 (PRMT5)” (Prelude Therapeutics, Incorporated, priority 2018, dated 2020)
